Test results from patent publication US20230226056A1, “[…] FOR PREVENTING OR TREATING SARS-COV-2 INFECTIONS” (priority 2020, published 2023).
Entries after “also recorded” stand apart in the source; their conditions may differ.

Key:
[1] = biological target: T1, SARS-CoV-2 Spike S1 protein binding to ACE2-expressing A549 cells (Severe acute respiratory syndrome coronavirus 2, UniProt P0DTC2); assay type: cell-based
T1 construct: the HIS-tagged SARS-Cov2-S1 protein is added to each tube; ACE2: endogenous in A549 cells (ATCC)

[2] = Maximum solubility of ectoine; assay type: physicochemical
From the text: For a maximally saturated solute solution, concentrations that are just below the solubility limit of the respective solute are preferred. Such a highly concentrated solute solution can be used as a starting solution to prepare the solution required on site. In this way, individual solutions can be diluted depending on the administration required, the patient's condition (existing conditions, age, etc.) and/or desired therapy. This is especially beneficial when not differently concentrated solutions can be stored.

[3] = Osmolarity of ectoine solution; assay type: physicochemical
From the text: An isotonic NaCl solution of 0.9% has an osmolar activity of 286 mOsmol/kg H2O. A 2% ectoine solution has an osmolarity of 147 mOsmol/kg H2O. An isotonic ectoine solution thus has a concentration of 3.89%.

Oral toxicity = assay type: in vivo
[4] = Plasma concentration after oral ectoine in rats; assay type: in vivo; conditions: 1000 mg/kg

SMILES	Median (background-subtracted fluorescence, Mann Whitney test) [1]	effect on Cov2 S1 protein binding to A549 cells [1]	effect on the binding between Cov2 S1 and the A549 cells [1]	inhibition of the binding of the Cov2 S1 protein to A549 cells [1]	inhibitory effect on Cov2 S1 binding [1]	bound viral Cov2 S1 protein on the cell surface [1]	fluorescence of the Cov2 S1 protein bound to A549 cells [1]	maximum solubility ([2]; 25° C.)	maximum solubility ([2]; 40° C.)	osmolarity ([3]; 2% ectoine solution) [mOsmol/kg H2O]	concentration of an isotonic ectoine solution ([3]; relative to isotonic 0.9% NaCl, 286 mOsmol/kg H2O) [%]	NOAL (Oral toxicity) [mg/kg body weight/day]	plasma concentration [4] [µg/mL]
CC(=O)NCC[C@H](N)C(=O)O [NADA, Nγ-Acetyl-L-2,4-diaminobutyric acid, reference compound]	1.820, n = 4	no effect	No effect	no inhibition; also recorded: little inhibition; also recorded: no significant effect	comparable to untreated cells								
CC1=N[C@H](C(=O)O)CCN1 [ectoine, (4S)-2-Methyl-1,4,5,6-tetrahydropyrimidine-4-carbon acid]	0.3050, n = 4			complete inhibition; also recorded: positive effect	significant	less or no bound viral Cov2 S1 protein	lower fluorescence	about 550 g/L	about 620 g/L	147	3.89	2000	99
